According to patent US10780043B2, “Cosmetic compositions comprising ginger root extracts” (Symrise AG, priority 2015, dated 2020):

Test system: CYP1A1 gene expression
Test: CYP1A1 gene expression (qRT-PCR) in keratinocytes after induction with model particles
Assay type: cell-based, human
Details: 10 μM, untreated = 1
Protocol: Gene expression was analyzed via qRT-PCR.

- CYP1A1 Induction mean ± SE (NHEK adult, SRM1650 1.5 μg/cm2, 6 h): 0.02 ± 0.00
- CYP1A1 Induction mean ± SE (NHEK adult, SRM2975 1.5 μg/cm2, 6 h): 0.20 ± 0.00
- CYP1A1 Induction mean ± SE (NHEK adult, SRM2975 1.5 μg/cm2, 24 h): 0.01 ± 0.00
- CYP1A1 Induction mean ± SE (indoor particles Huber990 1.5 μg/cm2, 6 h): 0.05 ± 0.00
- CYP1A1 Induction mean ± SE (indoor particles Huber990 1.5 μg/cm2, 24 h): 0.20 ± 0.00
Substance: E/Z-2-benzylindene-5,6-dimethoxy-3,3-dimethylindan-1-one [BDDI]
